Our source for the inhibition mode and Km values is PMC8348562, “Potential Assessment of UGT2B17 Inhibition by Salicylic Acid in Human Supersomes In Vitro” (Molecules, 2021).

The target in one data set is T1, UGT2B17 (Homo sapiens, UniProt O75795).
T1 construct: recombinant human UGT2B17 supersomes (insect cells infected with baculovirus)
T1 sequence (O75795 24-530): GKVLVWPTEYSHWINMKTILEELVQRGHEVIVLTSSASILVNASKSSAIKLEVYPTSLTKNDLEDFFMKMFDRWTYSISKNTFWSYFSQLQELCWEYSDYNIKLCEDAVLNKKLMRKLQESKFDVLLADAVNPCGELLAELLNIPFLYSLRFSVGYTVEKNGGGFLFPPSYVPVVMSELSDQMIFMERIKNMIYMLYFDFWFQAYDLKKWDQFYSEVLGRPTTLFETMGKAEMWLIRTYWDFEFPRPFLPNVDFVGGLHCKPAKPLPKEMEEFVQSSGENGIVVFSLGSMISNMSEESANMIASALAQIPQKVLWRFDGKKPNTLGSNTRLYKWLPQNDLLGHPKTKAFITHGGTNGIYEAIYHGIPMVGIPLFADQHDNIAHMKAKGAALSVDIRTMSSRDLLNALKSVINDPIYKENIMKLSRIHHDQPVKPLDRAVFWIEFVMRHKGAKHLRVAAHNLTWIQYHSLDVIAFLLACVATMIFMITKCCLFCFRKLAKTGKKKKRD
In words: HPLC testosterone glucuronidation assay in recombinant supersomes, Lineweaver-Burk analysis at […] salicylic acid. The class given is biochemical.

Substrate in the data set “purified protein”: C[C@]12CC[C@H]3[C@@H](CCC4=CC(=O)CC[C@@]43C)[C@@H]1CC[C@@H]2O
In words: purified protein. The following applies: UDPGA; MgCl2.

Regarding `O=C(O)c1ccccc1O` [salicylic acid], the inhibition mode result at UGT2B17 was “UGT2B17 enzyme activity was inhibited uncompetitively by salicylic acid based on the in vitro inhibition study in human supersomes”.

B1: UGT2B17 (Homo sapiens) (protein)
chain: T1 sequence (O75795 24-530)
As to B1, the Km in “purified protein” amounted to 259.74 µM.

Broadly, the Km is the substrate concentration at which the rate is half of its maximum.
